# Laboratory results from BindingDB's records for doi:10.1021/jm050004k (Karo Bio, 2005).
# Columns and labels:
# [1] = target: T1, Thyroid hormone receptor alpha (Homo sapiens, UniProt P10827); assay: TRalpha-Binding Assay and Thyroid Response Element (TRAFalpha1) Reporter Assay.; settings: pH 7; 4 °C
# T1 sequence (P10827 whole entry): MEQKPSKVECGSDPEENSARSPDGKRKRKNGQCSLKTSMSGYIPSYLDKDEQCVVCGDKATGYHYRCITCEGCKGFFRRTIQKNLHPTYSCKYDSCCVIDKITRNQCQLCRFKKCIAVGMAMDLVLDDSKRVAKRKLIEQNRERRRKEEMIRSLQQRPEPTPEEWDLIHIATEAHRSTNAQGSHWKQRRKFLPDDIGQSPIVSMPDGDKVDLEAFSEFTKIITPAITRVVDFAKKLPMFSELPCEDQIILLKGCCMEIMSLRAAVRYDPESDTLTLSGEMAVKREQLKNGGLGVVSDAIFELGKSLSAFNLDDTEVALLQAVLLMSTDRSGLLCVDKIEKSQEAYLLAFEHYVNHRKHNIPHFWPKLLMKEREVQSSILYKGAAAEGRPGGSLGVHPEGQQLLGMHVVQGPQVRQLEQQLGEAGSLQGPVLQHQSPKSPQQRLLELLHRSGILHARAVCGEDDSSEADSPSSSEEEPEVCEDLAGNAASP
# Description: IIC50 is the concentration of each compound required to inhibit 50% binding of 125I-T3 to hTRalpha. EC50 is the concentration of compound required to inhibit 50% of T3-induced TRalpha-activation in CHOK1 cells stably transfected with hTRalpha using alkaline phosphatase reporter assay.
# [2] = target: T2, Thyroid hormone receptor beta (Homo sapiens, UniProt P10828); assay: TRbeta-Binding Assay and Thyroid Response Element (TRAFbeta1) Reporter Assay.; settings: pH 7; 4 °C
# T2 sequence (P10828 whole entry): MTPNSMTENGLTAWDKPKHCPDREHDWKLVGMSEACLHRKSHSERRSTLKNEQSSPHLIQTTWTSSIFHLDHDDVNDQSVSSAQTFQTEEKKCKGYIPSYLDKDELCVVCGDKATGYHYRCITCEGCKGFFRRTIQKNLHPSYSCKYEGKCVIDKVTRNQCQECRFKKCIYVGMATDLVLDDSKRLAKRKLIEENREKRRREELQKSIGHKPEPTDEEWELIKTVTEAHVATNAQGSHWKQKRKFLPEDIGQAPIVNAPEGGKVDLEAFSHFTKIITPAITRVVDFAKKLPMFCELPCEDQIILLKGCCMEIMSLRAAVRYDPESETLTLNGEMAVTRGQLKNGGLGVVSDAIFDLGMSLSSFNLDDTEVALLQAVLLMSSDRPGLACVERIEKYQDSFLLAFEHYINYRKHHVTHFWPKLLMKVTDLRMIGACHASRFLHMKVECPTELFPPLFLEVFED
# Description: IC50 is the concentration of each compound required to inhibit 50% binding of 125I-T3 to hTRbeta. EC50 is the concentration of compound required to inhibit 50% of T3-induced TRbeta-activation in CHOK1 cells stably transfected with hTRbeta using alkaline phosphatase reporter assay.
SMILES,EC50 [1] [nM],EC50 [2] [nM],IC50 [2] [nM]
"CCC(CC)COc1c(Br)cc(CC(=O)O)cc1Br [2-[3,5-dibromo-4-(2-ethylbutoxy)phenyl]acetic acid]",0.82,0.7,–
"CC(C)CCOc1c(Br)cc(CC(=O)O)cc1Br [2-[3,5-dibromo-4-(3-methylbutoxy)phenyl]acetic acid]",–,–,1800
"O=C(O)Cc1cc(Br)c(OCC2CCCCC2)c(Br)c1 [2-[3,5-dibromo-4-(cyclohexylmethoxy)phenyl]acetic acid]",0.42,0.52,–
"CCCCCCOc1c(Br)cc(CCC(=O)O)cc1Br [3-[3,5-dibromo-4-(hexyloxy)phenyl]propanoic acid]",0.6,1,–
"CCCCCCOc1c(Br)cc(CC(=O)O)cc1Br [2-[3,5-dibromo-4-(hexyloxy)phenyl]acetic acid]",0.7,0.8,–
O=C(O)CCc1cc(Br)c(OCC2CCCCC2)c(Br)c1 [JMC496635 Compound 9],0.53,0.12,–
